In brackets after ≈: the same amount, converted by molar mass. Like-named read-outs stand apart in the source and are kept apart here.
Tests used:
Escherichia coli 070 = assay: bactericidal activity (germs still alive); type: cell-based; parameters: key: +++: all the germs are still alive; +: it remains some colonies; -: it does not remain any germ
Procedure: (§1) The bactericidal activity of product A was ascertained by determining the number of germs still alive after treatment with increasing doses of antibiotic on a liquid media. From the cultures in tubes having 72 hours (previously described method), were placed on agar in Petri dishes a constant sample of the last tube having grown and of the following tubes where no more growth in transillumination is observed. After 48 hours of culture in the Petri dishes, the number of colonies was ascertained.

[1] = tested on: Streptococcus hemolyticus 920; assay: bactericidal activity (germs still alive); type: cell-based; parameters: key: +++: all the germs are still alive; +: it remains some colonies; -: it does not remain any germ
Procedure: as §1

Escherichia coli 4965 = assay: bactericidal activity (germs still alive); type: cell-based; parameters: key: +++: all the germs are still alive; +: it remains some colonies; -: it does not remain any germ
Procedure: as §1

[2] = tested on: Diplococcus pneumoniae 735; assay: bactericidal activity (germs still alive); type: cell-based; parameters: key: +++: all the germs are still alive; +: it remains some colonies; -: it does not remain any germ
Procedure: as §1

[3] = tested on: Streptococcus hemolyticus 905; assay: bactericidal activity (germs still alive); type: cell-based; parameters: key: +++: all the germs are still alive; +: it remains some colonies; -: it does not remain any germ
Procedure: as §1

Escher. Coli UC 1261 = assay: MIC, diffusion method in gelose medium at pH 7 (Table I); type: cell-based; conditions: Escherichia coli, UC1261; Escher. Coli UC 1261, pH 7; read-out: minimum concentration of inhibition
Procedure: (§2) The antibiotic activity was determined by the diffusion method in a gelose medium at a pH of 7. The following Table expresses the minimum concentration of inhibition in mcg/ml (CMl) for the products against different microbial strains.

Escher. Coli UC 1020 = assay: as above; type: cell-based; conditions: Escherichia coli, UC1020; Escher. Coli UC 1020, pH 7; read-out: minimum concentration of inhibition
Procedure: as §2

Strept. Fecalis 5432 = assay: as above; type: cell-based; conditions: Strept. Fecalis 5432, pH 7; read-out: minimum concentration of inhibition
Procedure: as §2

[4] = tested on: Staph. aureus oxford U.C. 1061 P(+); assay: as above; type: cell-based; conditions: Staphylococcus aureus, UC1061; Staph. aureus oxford UC 1061, penicillin sensitive, pH 7; read-out: minimum concentration of inhibition
Procedure: as §2

Bac. Subt. = assay: as above; type: cell-based; conditions: Bac. Subt., pH 7; read-out: minimum concentration of inhibition
Procedure: as §2

[5] = tested on: Strept. hemoly. Todd Hewitt; assay: as above; type: cell-based; conditions: Strept. hemoly. Todd Hewitt, pH 7; read-out: minimum concentration of inhibition
Procedure: as §2

Pseudomonas = assay: as above; type: cell-based; conditions: read-out: minimum concentration of inhibition
Procedure: as §2

Staph. U.C. 1128 P(-) = assay: as above; type: cell-based; conditions: Staph. UC 1128, penicillin resistant, read-out: minimum concentration of inhibition
Procedure: as §2

oral toxicity in rats = conditions: rat, in vivo
Procedure: The oral toxicity of product A was determined on homogenous groups of 10 male rats weighing 100 to 110 g by administering orally a 0.25% by weight dispersion of product A in an aqueous suspension of carboxymethyl cellulose with an esophagus probe. […] The rats in the test were held in a place in which the air was filtered and sterilized by ultraviolet light and the temperature was held at 22° ± 1° C with a controlled humidity.

Escherichia coli 1751 = assay: MIC (Table II); type: cell-based; conditions: read-out: minimum inhibition concentration
Procedure: as §2
(§3) Using the same procedure as in Table I, the minimum inhibition concentration in mcg/ml was determined against different microbial strains with L(-) cis 7-[D(-)-α-aminophenylacetamido]-3-isopropyl-3-cepheme-4-carboxylic acid (product A) of Example 9.

Escherichia coli 3019 = assay: MIC (Table II); type: cell-based; conditions: read-out: minimum inhibition concentration
Procedure: as §2, §3

Escherichia coli 9957 = assay: MIC (Table II); type: cell-based; conditions: read-out: minimum inhibition concentration
Procedure: as §2, §3

[6] = tested on: Streptococcus hemolyticus 561; assay: MIC (Table II); type: cell-based; conditions: Streptococcus pyogenes, read-out: minimum inhibition concentration
Procedure: as §2, §3

Escherichia coli 5524 = assay: MIC (Table II); type: cell-based; conditions: read-out: minimum inhibition concentration
Procedure: as §2, §3

[7] = tested on: Staphylococcus aureus 397; assay: MIC (Table II); type: cell-based; conditions: read-out: minimum inhibition concentration
Procedure: as §2, §3

Escherichia coli 9927 = assay: MIC (Table II); type: cell-based; conditions: read-out: minimum inhibition concentration
Procedure: as §2, §3

[8] = tested on: Streptococcus hemolyticus 905; assay: MIC (Table II); type: cell-based; conditions: Streptococcus pyogenes, read-out: minimum inhibition concentration
Procedure: as §2, §3

Staphylococcus aureus = assay: in vivo antibacterial activity, experimental staphylococcia in mice, oral
Procedure: The in vivo antibacterial activity for product A was determined in mice with an experimental staphylococcia. 50 male mice weighing 20 to 23 g were divided into 5 groups of 10 mice each and all were infected interperitoneally with 0.5 ml of a 15 hour culture of Staphylococcus aureus in Pasteur nutritive broth diluted 1/3 with distilled water. Each mouse received product A orally 1 hour and 5 hours after the infection.

[9] = 0.5 mg repeated two times, oral
[10] = 0.5 mg repeated two times, oral, 10 mice
[11] = 1.0 mg repeated two times, oral
[12] = 2.0 mg repeated two times, oral
[13] = 3.0 mg repeated two times, oral

CC(C)C1=C(C(=O)O)N2C(=O)[C@@H](NC(=O)[C@H](N)c3ccccc3)[C@H]2SC1 [Example 9, L (+) cis 7-[D (-)-α-aminophenylacetamido]-3-isopropyl-3-cepheme-4-carboxylic acid]
germs still alive (Escherichia coli 070; 30 μg/ml): +++ | germs still alive (Escherichia coli 070; 40 μg/ml): - | germs still alive ([1]; 2 μg/ml): +++ | germs still alive ([1]; 3 μg/ml): - | germs still alive (Escherichia coli 4965; 30 μg/ml): +++ | germs still alive (Escherichia coli 4965; 40 μg/ml): - | germs still alive ([2]; 1 μg/ml): +++ | germs still alive ([2]; 2 μg/ml): - | germs still alive ([2]; 3 μg/ml): - | germs still alive ([3]; 1 μg/ml): +++ | germs still alive ([3]; 2 μg/ml): - | germs still alive ([3]; 3 μg/ml): - | MIC (Escher. Coli UC 1261): 40 to 100 µg/mL (≈ 107 to 266 µM) | MIC (Escher. Coli UC 1020): 100 µg/mL (≈ 266 µM) | MIC (Strept. Fecalis 5432): 20 µg/mL (≈ 53.3 µM) | MIC [4]: 0.4 µg/mL (≈ 1.07 µM) | MIC (Bac. Subt.): 0.2 µg/mL (≈ 0.533 µM) | MIC [5]: 10 µg/mL (≈ 26.6 µM) | MIC (Pseudomonas): > 100 µg/mL | MIC (Staph. U.C. 1128 P(-)): 2 µg/mL (≈ 5.33 µM) | LD50 (oral toxicity in rats): > 800 mg/kg | abnormal symptoms (oral toxicity in rats; 800 mg/kg): none of the rats presented any abnormal symptoms | MIC (Escherichia coli 1751; 24h): 30 µg/mL (≈ 79.9 µM) | MIC (Escherichia coli 1751; 48h): 30 µg/mL (≈ 79.9 µM) | MIC (Escherichia coli 1751; 72h): 30 µg/mL (≈ 79.9 µM) | MIC (Escherichia coli 3019; 24h): 30 µg/mL (≈ 79.9 µM) | MIC (Escherichia coli 3019; 48h): 40 µg/mL (≈ 107 µM) | MIC (Escherichia coli 3019; 72h): 40 µg/mL (≈ 107 µM) | MIC (Escherichia coli 9957; 24h): 40 µg/mL (≈ 107 µM) | MIC (Escherichia coli 9957; 48h): 100 µg/mL (≈ 266 µM) | MIC (Escherichia coli 9957; 72h): 100 µg/mL (≈ 266 µM) | MIC ([6]; 24h): 0.6 µg/mL (≈ 1.6 µM) | MIC ([6]; 48h): > 40 µg/mL | MIC (Escherichia coli 5524; 24h): 60 µg/mL (≈ 160 µM) | MIC (Escherichia coli 5524; 48h): 60 µg/mL (≈ 160 µM) | MIC (Escherichia coli 5524; 72h): 60 µg/mL (≈ 160 µM) | MIC ([7]; 24h): 2 µg/mL (≈ 5.33 µM) | MIC ([7]; 48h): 5 µg/mL (≈ 13.3 µM) | MIC ([7]; 72h): 10 µg/mL (≈ 26.6 µM) | MIC (Escherichia coli 9927; 24h): 100 µg/mL (≈ 266 µM) | MIC (Escherichia coli 9927; 48h): > 100 µg/mL | MIC ([8]; 24h): 2 µg/mL (≈ 5.33 µM) | MIC ([8]; 48h): 2 µg/mL (≈ 5.33 µM) | MIC ([8]; 72h): 2 µg/mL (≈ 5.33 µM) | Mice living on 8th day (Staphylococcus aureus; [9]): 7/10 | Mice living on 8th day (%) (Staphylococcus aureus; [9]): 70% | Mortality at 10h (Staphylococcus aureus; [10]): 1 | Mortality at 22h (Staphylococcus aureus; [10]): 1 | Mortality at 70h (Staphylococcus aureus; [10]): 1 | Mice living on 8th day (Staphylococcus aureus; [11]): 9/10 | Mice living on 8th day (%) (Staphylococcus aureus; [11]): 90% | Mortality at 70h (Staphylococcus aureus; 1.0 mg repeated two times, oral, 10 mice): 1 | Mice living on 8th day (Staphylococcus aureus; [12]): 10/10 | Mice living on 8th day (%) (Staphylococcus aureus; [12]): 100% | Mice living on 8th day (Staphylococcus aureus; [13]): 10/10 | Mice living on 8th day (%) (Staphylococcus aureus; [13]): 100% | antibacterial activity (Staphylococcus aureus; administered orally, 1 hour and 5 hours after infection): good antibacterial activity

Reference: patent US4016158A, “Cephalosporin derivatives” (Roussel-UCLAF, priority 1971, dated 1977)
